From patent US11517598B2 (priority 2016, dated 2022)

Columns and labels:
[1] = system: VSVΔ51 in various human and mouse cancer cell lines resistant to VSVΔ51 infection; type: cell-based
[2] = system: VSVΔ51 in various human and mouse cancer cell lines; type: cell-based

Sodium orthovanadate
VSVΔ51 infection and viral titer [1]: Comparable results | plaque size [2]: substantially increased plaque size
